A short description of data set [1]: Solubility of WX-671 hydrogen sulfate in water. It counts as physicochemical. The note with it: 25° C., calculated for the base. An excerpt:
The purity was ≧98% (area % after HPLC).

Data set [2] can be described thus: Stability of WX-671 hydrogen sulfate (stirring in water/acetone; storage as solid). It counts as physicochemical. On the procedure:
5 g of hydrogen sulfate were stirred in 25 ml of water/acetone (80/20) for 7 days, filtered and dried at room temperature for 60 h. […] After stirring, no increase in the content of organic contaminations was found (determination by HPLC).
After storage as a solid substance at 90° C. for 1 week, <1.5% organic contaminations were found (determination by HPLC).

For a further data set, the system named is BN-472 breast cancer. The data set can be described thus: Breast cancer model BN-472, tumor growth and metastasis in the rat (WX-683). In kind it is in vivo. The note with it: BN-472 rat. The text has this:
BN-472 breast cancer fragments of approximately 20 mm in diameter were taken from a female donor animal. The tumor was excised, separated from the adhering connective tissue, rinsed with saline, and resuspended in HAM-F12 cell culture medium (Invitrogen BV, Breda, Netherlands), supplemented with 10% fetal calf serum (Hi Clone, Greiner BV, Alphen a/d Rijn, Netherlands). The tumor cortex was sliced into cubes of about 2 mm side length and implanted orthotopically under the mammary fat pad of the 4th right nipple of 7 to 9-weeks old recipient female BN rats. Of the grafted tumors, over 95% became palpable within 3 days, and metastasis to the lungs were detected within 2 to 4 weeks.
Shortly before starting the WX-683 treatment on day 3 after tumor transplantation, all rats were individually weighed and the size of the individual tumor measured as the product of the two largest perpendicular diameters. They were then assorted into groups consisting of 18 rats. The rats were pre-selected such that all treatment groups had similar average body weights and tumor size distributions at the start of the treatment. Control rats received 800 μl vehicle (0.01 N HCl) p.o. WX-683 was dissolved in vehicle at the appropriate concentrations and administered in a volume of 800 μl at dosages of 0.3 and 3 mg/kg by oral gavage once a day. The duration of WX-683 treatment ranged from 24 to 25 days, depending whether the tumor size exceeded the maximum tolerable burden. At the end of the treatment period, the rats were sacrificed, their tumors harvested, separated from the adhering connective tissue and the total tumor weight of every rat was determined. To assess the number of lung metastases, the lungs were fixed in Bouin's solution for at least 24 h. Subsequently the number of lung metastases were determined by counting the yellowish-white macroscopic foci on the lung surface (FIG. 7). This study was approved by the Independent Institutional Animal Care and Use Committee (DEC-Consult), Rotterdam, Netherlands, permit no: Erasmus MC OZP 136-03-01, issued on 01.03.2003.

The test system of another data set is BN472 breast cancer. The data set can be described thus: Breast cancer model BN472, tumor growth and metastasizing in rats (WX-671). The note with it: WX-UK1 i.p. 1 mg/kg daily, 30 days, BN472 rat mammary tumor model.
The subject of data set [3] is CA20948 rat pancreatic tumor. The data set can be described thus: Pancreatic adenocarcinoma model CA20948. The note with it: WX-UK1 0.3 mg/kg intraperitoneal, 3 weeks, vehicle 30.7%.

These results are taken from patent US7608623B2, “Hydroxyamidine and hydroxyguanidine compounds as urokinase inhibitors” (Wilex AG, priority 2003, dated 2009).

In the case of `CCOC(=O)N1CCN(C(=O)[C@H](Cc2cccc(/C(N)=N\O)c2)NS(=O)(=O)c2c(C(C)C)cc(C(C)C)cc2C(C)C)CC1.O=S(=O)(O)O` [WX-671 hydrogen sulfate], in data set [1], the solubility in water was 1172.5 µg/mL. In data set [2] (after stirring in water/acetone (80/20) for 7 days), the “increase in content of organic contaminations (HPLC)” value is recorded as “no increase”. Further, the “stability of the salt to dissociation (stoichiometry)” value in data set [2] (stirred in water/acetone (80/20) for 7 days) is “stable to dissociation”. The “organic contaminations (HPLC)” value in data set [2] (storage as solid at 90° C. for 1 week) is less than 1.5%.

Consider `CCOC(=O)N1CCN(C(=O)[C@H](Cc2cccc(NC(=N)NO)c2)NS(=O)(=O)c2c(C(C)C)cc(C(C)C)cc2C(C)C)CC1` [WX-683, N-α-(2,4,6-triisopropylphenylsulfonyl)-3-hydroxyguanidino-(L)-phenylalanine-4-ethoxycarbonylpiperazide], for which the figures for the “reduction of median number of lung metastases” value in the data set on BN-472 breast cancer (oral 0.3 mg/kg/day) and in the data set with BN-472 breast cancer (oral 3 mg/kg/day) were 18% and 54%, respectively. In the data set on BN-472 breast cancer (oral, highest dosage used (3 mg/kg/day)), the “reduction of median primary tumor weight” value turned out to be 38%.

For the compound `CCOC(=O)N1CCN(C(=O)[C@H](Cc2cccc(C(=N)N)c2)NS(=O)(=O)c2c(C(C)C)cc(C(C)C)cc2C(C)C)CC1.Cl` [WX-UK1], in the data set on BN472 breast cancer, the “reduction of average tumor weights at the end of the treatment compared to the control” value is recorded as “approx. 5%”. Also, in data set [3], the “percentage large mets (>2 mm liver lesions of total liver lesions)” value was determined as 13.4%.
